Data taken from patent publication US20150158845A1, “5-HALOGEN-SUBSTITUTED OXINDOLE DERIVATIVES AND USE THEREOF FOR TREATING VASOPRESSIN-DEPENDENT DISEASES” (ABBVIE DEUTSCHLAND GMBH & CO. KG, priority 2007, published 2015).

Legend:
[1] = target: T1, human vasopressin V1b receptor (Homo sapiens, UniProt P47901); assay: Vasopressin V1b receptor binding assay; settings: membranes from CHO-K1 cells with human V1b receptor, 1.5 nM 3H-AVP
T1 construct: expressed in transfected cells; host or cells: CHO-K1 (clone 3H2; cell line hV1b-3H2_CHO), membrane preparation
T1 sequence (P47901 1-424): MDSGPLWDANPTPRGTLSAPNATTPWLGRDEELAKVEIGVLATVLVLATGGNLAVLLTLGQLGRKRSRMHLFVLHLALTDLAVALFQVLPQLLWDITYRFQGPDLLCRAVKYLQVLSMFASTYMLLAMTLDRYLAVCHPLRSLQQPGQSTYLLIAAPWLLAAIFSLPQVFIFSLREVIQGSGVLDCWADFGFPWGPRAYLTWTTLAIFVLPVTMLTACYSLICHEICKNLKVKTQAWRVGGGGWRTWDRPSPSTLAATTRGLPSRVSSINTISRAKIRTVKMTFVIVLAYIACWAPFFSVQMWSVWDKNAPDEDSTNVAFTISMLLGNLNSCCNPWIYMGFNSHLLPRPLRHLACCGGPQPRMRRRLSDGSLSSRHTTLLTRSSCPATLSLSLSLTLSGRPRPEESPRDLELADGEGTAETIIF
Method: 1. Vasopressin V1b Receptor Binding Assay:
The substance concentration was further diluted 1:5 in the assay mixture (2% DMSO in the mixture).
The nonspecific binding was determined with 1 M AVP (Bachem # H1780). All determinations were carried out as triplicate determinations.

[2] = target: human vasopressin V1a receptor (Homo sapiens, UniProt P37288); assay: Vasopressin V1a receptor binding assay; settings: selectivity: quotient of Ki at human V1a and Ki at human V1b
[3] = Determination of the microsomal half-life / microsomal clearance; format: in vitro ADME; settings: pH 7.4; human liver microsomes, 0.5 μM test substance, 0.25 mg microsomal protein/ml
Method: 5. Determination of the Microsomal Half-Life:
The metabolic stability of the compounds of the invention was determined in the following assay.
The test substances were incubated in a concentration of 0.5 μM as follows: 0.5 μM test substance are preincubated together with liver microsomes from different species (from rat, human or other species) (0.25 mg of microsomal protein/ml) in 0.05 M potassium phosphate buffer of pH 7.4 in microtiter plates at 37° C. for 5 min. The reaction is started by adding NADPH (1 mg/mL). After 0, 5, 10, 15, 20 and 30 min, 50 μl aliquots are removed, and the reaction is immediately stopped and cooled with the same volume of acetonitrile. The samples are frozen until analyzed. The remaining concentration of undegraded test substance is determined by MSMS. The half-life (T½) is determined from the gradient of the signal of test substance/unit time plot, it being possible to calculate the half-life of the test substance, assuming first order kinetics, from the decrease in the concentration of the compound with time. The microsomal clearance (mCl) is calculated from mCl=In2/T½/(content of microsomal protein in mg/ml)×1000 […] (modified from references: Di, The Society for Biomoleculur Screening, 2003, 453-462; Obach, DMD, 1999 vol 27. N 11, 1350-1359).

Sequence of human vasopressin V1a receptor (P37288 whole entry): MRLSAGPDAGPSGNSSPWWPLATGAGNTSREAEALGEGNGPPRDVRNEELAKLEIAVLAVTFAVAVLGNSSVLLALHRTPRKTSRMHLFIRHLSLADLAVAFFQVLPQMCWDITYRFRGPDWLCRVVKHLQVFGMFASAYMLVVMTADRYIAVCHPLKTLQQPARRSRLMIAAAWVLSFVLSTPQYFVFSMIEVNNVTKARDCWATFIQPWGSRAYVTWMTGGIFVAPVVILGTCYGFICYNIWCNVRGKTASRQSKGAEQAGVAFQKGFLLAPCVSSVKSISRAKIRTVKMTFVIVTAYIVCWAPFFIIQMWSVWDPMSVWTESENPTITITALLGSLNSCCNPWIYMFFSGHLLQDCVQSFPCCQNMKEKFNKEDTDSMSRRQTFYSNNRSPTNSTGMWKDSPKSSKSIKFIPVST

Ki [1]: < 1 nM
Ki(h-V1a)/Ki(h-V1b) [2]: +++ (>75)
microsomal CLint at 0.5 μM [3]: 75 to 100 µL/min/mg
SMILES: CCOc1ncccc1C1(NC(=O)N2CCC(N3CCN(CC)CC3)CC2)C(=O)N(S(=O)(=O)c2ccc(OC)cc2OC)c2ccc(Cl)cc21 (single isomer, unassigned; (+)) [Example 8B, (+)-4-(4-Ethylpiperazin-1-yl)piperidine-1-[5-chloro-1-(2,4-dimethoxyphenylsulfonyl)-3-(2-ethoxypyridin-3-yl)-2-oxo-2,3-dihydro-1H-indol-3-yl]carboxamide]
